Assay results: ChEMBL document CHEMBL6078703, “Discovery of Novel Thiophene-Based Baloxavir Derivatives as Potent Cap-Dependent Endonuclease Inhibitors for Influenza Treatment” (J Med Chem, 2024)
Calls of active or inactive are those of the source. The rule behind the calls is not given here.

How the values were obtained:
[1] = tested on: Influenza A virus; assay: Antiviral activity against influenza virus clinical strain H3N2 (A/Guangdong/2/2023) infected in MDCK cells assessed as reduction of virus-induced cytopathic effect measured after 2 days incubation; assay type: functional, organism-based; settings: 48 h
[2] = Cytotoxicity against human Hep3B cells assessed as cell viability measured after 48 hrs by CCK-8 assay; assay type: toxicity, cell-based, Hep 3B2
[3] = Cytotoxicity against human Huh-7 cells assessed as cell viability measured after 48 hrs by CCK-8 assay; assay type: toxicity, cell-based
[4] = AUC (0 to infinity) in CD-1 mouse at 1 mg/kg, iv measured up to 24 hrs by LC-MS/MS analysis; assay type: ADME, organism-based; settings: mouse, in vivo, iv, 1 mg/kg, 24 h
[5] = tested on: Influenza A virus; assay: Antiviral activity against influenza strain A/Aichi/ 2/1968 (H3N2) infected in MDCK cells assessed as reduction of virus-induced cytopathic effect measured after 2 days incubation; assay type: functional, organism-based; settings: 48 h
[6] = Cytotoxicity against human 786O cells assessed as cell viability measured after 48 hrs by CCK-8 assay; assay type: toxicity, cell-based, 786-0
[7] = Oral bioavailability in CD-1 mouse at 15 mg/kg measured up to 24 hrs by LC-MS/MS analysis; assay type: ADME, organism-based; settings: mouse, in vivo, po, 15 mg/kg, 24 h
[8] = Selectivity index, ratio of CC50 for dog MDCK cells to EC50 for antiviral activity against influenza strain A/WSN/1933 (H1N1) infected in MDCK cells; assay type: toxicity, cell-based; settings: read-out: Selectivity Index
[9] = Cytotoxicity against human HepG2 cells assessed as cell viability measured after 48 hrs by CCK-8 assay; assay type: toxicity, cell-based
[10] = tested on: Influenza A virus; assay: In vivo antiviral activity against influenza strain A/WSN/1933 (H1N1) infected in BALB/c mouse assessed as weight regaining at 10 to 40 mg/kg, IG treated 12 hrs after infection measured on 9 dpi; assay type: functional, organism-based; settings: dose 10-40 mg/kg, time 9.0 day
[11] = tested on: Influenza A virus; assay: In vivo antiviral activity against influenza strain A/WSN/1933 (H1N1) infected in BALB/c mouse assessed as improvement in septal thickening in lungs at 20 to 40 mg/kg, IG treated 12 hrs after infection measured on 9 dpi by histopathological analysis; assay type: functional, organism-based; settings: dose 20-40 mg/kg, time 9.0 day
[12] = Selectivity index, ratio of CC50 for dog MDCK cells to EC50 for antiviral activity against influenza strain A/Aichi/ 2/1968 (H3N2) infected in MDCK cells; assay type: toxicity, cell-based; settings: read-out: Selectivity Index
[13] = tested on: Influenza A virus; assay: In vivo antiviral activity against influenza strain A/WSN/1933 (H1N1) infected in BALB/c mouse assessed as improvement in alveolar collapse in lungs at 20 to 40 mg/kg, IG treated 12 hrs after infection measured on 9 dpi by histopathological analysis; assay type: functional, organism-based; settings: dose 20-40 mg/kg, time 9.0 day
[14] = tested on: Influenza A virus; assay: In vivo antiviral activity against influenza strain A/WSN/1933 (H1N1) infected in BALB/c mouse assessed as increase in mouse survival at 10 to 40 mg/kg, IG treated 12 hrs after infection measured on 9 dpi; assay type: functional, organism-based; settings: dose 10-40 mg/kg, time 9.0 day
[15] = tested on: Influenza A virus; assay: Antiviral activity against influenza strain A/WSN/1933 (H1N1) infected in MDCK cells assessed as reduction of virus-induced cytopathic effect measured after 2 days incubation; assay type: functional, organism-based; settings: 48 h
[16] = AUC (0 to infinity) in CD-1 mouse at 15 mg/kg, po measured up to 24 hrs by LC-MS/MS analysis; assay type: ADME, organism-based; settings: mouse, in vivo, po, 15 mg/kg, 24 h
[17] = tested on: Influenza A virus; assay: In vivo antiviral activity against influenza strain A/WSN/1933 (H1N1) infected in BALB/c mouse assessed as reduction in overall inflammation in lungs at 10 to 20 mg/kg, IG treated 12 hrs after infection measured on 9 dpi by histopathological analysis; assay type: functional, organism-based; settings: dose 10-20 mg/kg, time 9.0 day
[18] = Acute toxicity in CD-1 mouse assessed as abnormal lesions in intestine at 2000 mg/kg, po single dose measured for 2 weeks by macroscopic examination; assay type: organism-based; settings: in vivo, 336 h
[19] = Acute toxicity in CD-1 mouse assessed as abnormal lesions in spleen at 2000 mg/kg, po single dose measured for 2 weeks by macroscopic examination; assay type: organism-based; settings: in vivo, 336 h
[20] = tested on: Influenza A virus; assay: In vivo antiviral activity against influenza strain A/WSN/1933 (H1N1) infected in BALB/c mouse assessed as inhibition of virus-induced inflammatory cytokine IFNgamma level at 10 to 40 mg/kg, IG treated 12 hrs after infection measured on 9 dpi; assay type: functional, organism-based; settings: dose 10-40 mg/kg, time 9.0 day
[21] = Acute toxicity in CD-1 mouse assessed as mouse survival at 2000 mg/kg, po single dose measured for 2 weeks; assay type: organism-based; settings: in vivo, 336 h
[22] = tested on: Influenza A virus; assay: In vivo antiviral activity against influenza strain A/WSN/1933 (H1N1) infected in BALB/c mouse assessed as improvement in septal thickening in lungs at 10 to 20 mg/kg, IG treated 12 hrs after infection measured on 9 dpi by histopathological analysis; assay type: functional, organism-based; settings: dose 10-20 mg/kg, time 9.0 day
[23] = tested on: Influenza A virus; assay: In vivo antiviral activity against influenza strain A/WSN/1933 (H1N1) infected in BALB/c mouse assessed as inhibition of virus-induced inflammatory cytokine IL-1beta level at 10 to 40 mg/kg, IG treated 12 hrs after infection measured on 9 dpi; assay type: functional, organism-based; settings: dose 10-40 mg/kg, time 9.0 day
[24] = tested on: Influenza A virus; assay: In vivo antiviral activity against influenza strain A/WSN/1933 (H1N1) infected in BALB/c mouse assessed as improvement in alveolar collapse in lungs at 10 to 20 mg/kg, IG treated 12 hrs after infection measured on 9 dpi by histopathological analysis; assay type: functional, organism-based; settings: dose 10-20 mg/kg, time 9.0 day
[25] = Acute toxicity in CD-1 mouse assessed as abnormal lesions in kidney at 2000 mg/kg, po single dose measured for 2 weeks by macroscopic examination; assay type: organism-based; settings: in vivo, 336 h
[26] = tested on: Influenza A virus; assay: In vivo antiviral activity against influenza strain A/WSN/1933 (H1N1) infected in BALB/c mouse assessed as inhibition of virus-induced inflammatory cytokine IL-6 level at 10 to 40 mg/kg, IG treated 12 hrs after infection measured on 9 dpi; assay type: functional, organism-based; settings: dose 10-40 mg/kg, time 9.0 day
[27] = Acute toxicity in CD-1 mouse assessed as abnormal lesions in lungs at 2000 mg/kg, po single dose measured for 2 weeks by macroscopic examination; assay type: organism-based; settings: in vivo, 336 h
[28] = Acute toxicity in CD-1 mouse assessed as clinical signs of toxicity at 2000 mg/kg, po single dose measured for 2 weeks; assay type: organism-based; settings: in vivo, 336 h
[29] = tested on: Influenza A virus; assay: In vivo antiviral activity against influenza strain A/WSN/1933 (H1N1) infected in BALB/c mouse assessed as inhibition of virus-induced inflammatory cytokine TNF-alpha level at 10 to 40 mg/kg, IG treated 12 hrs after infection measured on 9 dpi; assay type: functional, organism-based; settings: dose 10-40 mg/kg, time 9.0 day

`O=C1c2c(O)c(=O)ccn2N([C@@H]2c3ccccc3SCc3c2ccc(F)c3F)[C@@H]2COCCN12` [BALOXAVIR] gave an EC50 [1] of 1.75 nM, a CC50 at 48 h [2] of 7.38 µM and a CC50 at 48 h [3] of 9.34 µM. The AUC [4] was 239 ng·h/mL, the EC50 [5] was 3.81 nM and the CC50 at 48 h [6] was 2.86 µM. For the same molecule, the F [7] was 27.2%, the selectivity ratio [8] was 5290 and the CC50 at 48 h [9] was 19.1 µM. For the same molecule, the Activity [10] was “Active; Surviving Animals Gradually Starting Weight Weight Beginning 9 Dpi”, the Activity [11] was “Active” and the selectivity ratio [12] was 2440. The Activity [13] was “Active”, the Activity [14] was “Active” and the EC50 [15] was 1.76 nM. The AUC [16] was 2877 ng·h/mL.
For `COC(=O)OCOc1c2n(ccc1=O)N([C@@H](c1ccc(F)c(F)c1)c1cccs1)[C@@H]1COCCN1C2=O`, the CC50 at 48 h [2] was greater than 50 µM, the Activity [17] was “Active” and the Activity [18] was “Non-toxic”. The Activity [19] was “Non-toxic”, the CC50 at 48 h [3] was 60.1 µM and the Activity [20] was “Active”. For the same molecule, the CC50 at 48 h [6] was 29.9 µM, the Activity [21] was “Non-toxic” and the CC50 at 48 h [9] was greater than 50 µM. For the same molecule, the Activity [22] was “inactive”, the Activity [23] was “Active” and the Activity [24] was “inactive”. For the same molecule, the Activity [25] was “Non-toxic”, the Activity [10] was “Active; Surviving Animals Gradually Starting Weight Weight Beginning 9 Dpi” and the Activity [26] was “Active”. The Activity [11] was “Active”, the Activity [13] was “Active” and the Activity [14] was “Active”. For the same molecule, the Activity [27] was “Non-toxic”, the Activity [28] was “Non-toxic” and the Activity [29] was “Active”.
